Earlier results in PubChem BioAssay AID1259409 (Chemical Carcinogenesis Research Information System (CCRIS), 2018).

System: rodent chemically induced tumor inhibition, incidence and multiplicity
Experiment: CCRIS tumor inhibitor studies

S=C=NCCCCCc1ccccc1
tumour outcome (control, treated, inhibition, significance) (Carcinogen: 4-(METHYLNITROSAMINO)-1-(3-PYRIDYL)-1-BUTANONE, 64091-91-4, Dose [Inhibitor]: 0, 0.2 UMOL 1/D FOR 4 D ADMINISTERED PRIOR TO CARCINOGEN TREATMENT (STUDY DURATION: 116 D), Route [Inhibitor]: GAVAGE, Species: MOUSE, Strain/Sex: STRAIN A, Target Tissue: Type of Lesion: LUNG: ADENOMA, Dose [Carcinogen]: 10 UMOL ONCE 2 HR AFTER FINAL DOSE OF INHIBITOR, Promoter: NONE USED): 100%, 100%, 0%, not significant | tumour outcome (control, treated, inhibition, significance) (Carcinogen: 4-(METHYLNITROSAMINO)-1-(3-PYRIDYL)-1-BUTANONE, 64091-91-4, Dose [Inhibitor]: 0, 1 UMOL 1/D FOR 4 D ADMINISTERED PRIOR TO CARCINOGEN TREATMENT (STUDY DURATION:116 D), Route [Inhibitor]: GAVAGE, Species: MOUSE, Strain/Sex: STRAIN A, Target Tissue: Type of Lesion: LUNG: ADENOMA, Dose [Carcinogen]: 10 UMOL ONCE 2 HR AFTER FINAL DOSE OF INHIBITOR, Promoter: NONE USED): 100%, 53%, 47%, p<0.05 | tumour outcome (control, treated, inhibition, significance) (Carcinogen: 4-(METHYLNITROSAMINO)-1-(3-PYRIDYL)-1-BUTANONE, 64091-91-4, Dose [Inhibitor]: 0, 5 UMOL 1/D FOR 4 D ADMINISTERED PRIOR TO CARCINOGEN TREATMENT (STUDY DURATION: 116 D), Route [Inhibitor]: GAVAGE, Species: MOUSE, Strain/Sex: STRAIN A, Target Tissue: Type of Lesion: LUNG: ADENOMA, Dose [Carcinogen]: 10 UMOL ONCE 2 HR AFTER FINAL DOSE OF INHIBITOR, Promoter: NONE USED): 100%, 25%, 75%, p<0.05

Oc1cccc(O)c1O
tumour outcome (control, treated, inhibition, significance) (Carcinogen: BENZO[A]PYRENE, 50-32-8, Dose [Inhibitor]: 5 MG IN 0.1 ML ACETONE 3/WK ADMINISTERED SIMULTANEOUSLY WITH CARCINOGEN FOR DURATION OF STUDY (STUDY DURATION: 440 D), Route [Inhibitor]: DERMAL, Species: MOUSE, Strain/Sex: ICR/FEMALE, Target Tissue: Type of Lesion: SKIN: PAPILLOMA, Dose [Carcinogen]: 5 UG IN 0.1 ML ACETONE THAT ALSO CONTAINED AGENT 3/WK, Promoter: NONE USED): 16/50 (32%), 40/50 (80%), -150%, not calculated | tumour outcome (control, treated, inhibition, significance) (Carcinogen: BENZO[A]PYRENE, 50-32-8, Dose [Inhibitor]: 5 MG IN 0.1 ML ACETONE 3/WK ADMINISTERED SIMULTANEOUSLY WITH CARCINOGEN FOR DURATION OF STUDY (STUDY DURATION: 440 D), Route [Inhibitor]: DERMAL, Species: MOUSE, Strain/Sex: ICR/FEMALE, Target Tissue: Type of Lesion: SKIN: SQUAMOUS CARCINOMA, Dose [Carcinogen]: 5 UG IN 0.1 ML ACETONE THAT ALSO CONTAINED AGENT 3/WK, Promoter: NONE USED): 12/50 (24%), 33/50 (66%), -175%, not calculated

C[N+](C)(C)CC(=O)O
tumour outcome (control, treated, inhibition, significance) (Carcinogen: ETHIONINE, 13073-35-3, Dose [Inhibitor]: 5.2 MMOL/100 G DIET DAILY FOR 8 MO ADMINISTERED SIMULTANEOUSLY WITH CARCINOGEN FOLLOWED BY 4 MO ON BASAL DIET (STUDY DUR, Route [Inhibitor]: ORAL, Species: RAT, Strain/Sex: WISTAR/MALE, Target Tissue: Type of Lesion: LIVER: CARCINOMA, Dose [Carcinogen]: 0.25% OF DIET DAILY FOR 8 MO, Promoter: NONE USED): 8/8 (100%), 1/10 (10%), 90%, not calculated

CC[C@H](C)/C=C/C1=CC2=C(Cl)C(=O)[C@@]3(C)OC(=O)C(C(=O)[C@@H](C)[C@@H](C)O)=C3C2=CO1
tumour outcome (control, treated, inhibition, significance) (Carcinogen: 7,12-DIMETHYLBENZ[A]ANTHRACENE, 57-97-6, Dose [Inhibitor]: 0, 2 UMOL 2/WK FOR 18 WK APPLIED 30 MIN PRIOR TO EACH PROMOTER DOSE BEGINNING 1 WK POST CARCINOGEN DOSE (STUDY DURATION:, Route [Inhibitor]: DERMAL, Species: MOUSE, Strain/Sex: ICR/FEMALE, Target Tissue: Type of Lesion: SKIN: PAPILLOMA, Dose [Carcinogen]: 50 UG ONCE, Promoter: 12-O-TETRADECANOYLPHORBOL-13-ACETATE, 16561-29-8): 100%, 33%, 67%, not calculated

CC1=C(/C=C/C(C)=C/C=C/C(C)=C/CO)C(C)(C)CCC1
tumour outcome (control, treated, inhibition, significance) (Carcinogen: BENZO[A]PYRENE, 50-32-8, Dose [Inhibitor]: 0, 4000 IU/KG DIET BEGINNING 170 D PRIOR TO CARCINOGEN AND CONTINUING FOR STUDY DURATION (STUDY DURATION: 512 D), Route [Inhibitor]: ORAL, Species: HAMSTER, Strain/Sex: SYRIAN/MALE, Target Tissue: Type of Lesion: RESPIRATORY TRACT: TUMOR, Dose [Carcinogen]: 10 MG IN SALINE PLUS 8 MG FERRIC OXIDE 1/2 WK FOR 10 WK, Promoter: NONE USED): 44%, 36%, 18%, not significant | tumour outcome (control, treated, inhibition, significance) (Carcinogen: BENZO[A]PYRENE, 50-32-8, Dose [Inhibitor]: 0, 100000 IU/KG DIET BEGINNING 170 D PRIOR TO CARCINOGEN AND CONTINUING FOR STUDY DURATION (STUDY DURATION: 512 D), Route [Inhibitor]: ORAL, Species: HAMSTER, Strain/Sex: SYRIAN/MALE, Target Tissue: Type of Lesion: RESPIRATORY TRACT: TUMOR, Dose [Carcinogen]: 10 MG IN SALINE PLUS 8 MG FERRIC OXIDE 1/2 WK FOR 10 WK, Promoter: NONE USED): 44%, 35%, 20%, not significant

COc1cc(C2OCC3C(c4ccc5c(c4)OCO5)OCC23)ccc1O (configuration not stated)
tumour outcome (control, treated, inhibition, significance) (Carcinogen: 7,12-DIMETHYLBENZ[A]ANTHRACENE, 57-97-6, Dose [Inhibitor]: 0, 85 NMOL IN 0.1 ML ACETONE 2/WK FOR 20 WK APPLIED 1 HR PRIOR TO EACH PROMOTER DOSE (STUDY DURATION: 20 WK), Route [Inhibitor]: DERMAL, Species: MOUSE, Strain/Sex: ICR/FEMALE, Target Tissue: Type of Lesion: SKIN: PAPILLOMA, Dose [Carcinogen]: 100 UG IN 0.1 ML ACETONE ONCE, Promoter: 12-O-TETRADECANOYLPHORBOL-13-ACETATE, 16561-29-8): 100%, 80%, 20%, not calculated

C=C1C(=O)O[C@@H]2/C=C(\C)CCC=C(C)CC[C@@H]12
tumour outcome (control, treated, inhibition, significance) (Carcinogen: AZOXYMETHANE, 25843-45-2, Dose [Inhibitor]: 0, 0.02% IN DIET FOR 4 WK BEGINNING AT TIME OF CARCINOGEN TREATMENT (STUDY DURATION: 33 WK), Route [Inhibitor]: ORAL, Species: RAT, Strain/Sex: F344/MALE, Target Tissue: Type of Lesion: INTESTINE: ADENOMA OR ADENOCARCINOMA, Dose [Carcinogen]: 15 MG/KG BW 1/WK FOR 3 WK, Promoter: NONE USED): 15/30 (50%), 5/29 (17%), 66%, p<0.05

CC[C@H](CC[C@@H](C)[C@H]1CC[C@H]2[C@@H]3CC=C4C[C@@H](O)CC[C@]4(C)[C@H]3CC[C@]12C)C(C)C
tumour outcome (control, treated, inhibition, significance) (Carcinogen: 7,12-DIMETHYLBENZ[A]ANTHRACENE, 57-97-6, Dose [Inhibitor]: 0, 5 UMOL 2/WK BEGINNING 1 WK POST CARCINOGEN TREATMENT AND CONTINUING FOR 18 WK (STUDY DURATION: 19 WK), Route [Inhibitor]: DERMAL, Species: MOUSE, Strain/Sex: ICR/FEMALE, Target Tissue: Type of Lesion: SKIN: PAPILLOMA, Dose [Carcinogen]: 50 UG ONCE, Promoter: 12-O-TETRADECANOYLPHORBOL-13-ACETATE, 16561-29-8): 100%, 80%, 20%, not calculated | tumour outcome (control, treated, inhibition, significance) (Carcinogen: AZOXYMETHANE, 25843-45-2, Dose [Inhibitor]: 2 G/KG DIET DAILY FOR 26 WK STARTING SIMULTANEOUSLY WITH CARCINOGEN TREATMENT (STUDY DURATION: 26 WK), Route [Inhibitor]: ORAL, Species: RAT, Strain/Sex: SPRAGUE-DAWLEY/MALE, Target Tissue: Type of Lesion: LARGE INTESTINE: MALIGNANT TUMOR, Dose [Carcinogen]: 8 MG/KG BW INJECTED 1/WK FOR 8 WK, Promoter: NONE USED): 90%, 93%, -3%, not significant | tumour outcome (control, treated, inhibition, significance) (Carcinogen: AZOXYMETHANE, 25843-45-2, Dose [Inhibitor]: 2 G/KG DIET DAILY FOR 26 WK STARTING SIMULTANEOUSLY WITH CARCINOGEN TREATMENT (STUDY DURATION: 26 WK), Route [Inhibitor]: ORAL, Species: RAT, Strain/Sex: SPRAGUE-DAWLEY/MALE, Target Tissue: Type of Lesion: SMALL INTESTINE: MALIGNANT TUMOR, Dose [Carcinogen]: 8 MG/KG BW INJECTED 1/WK FOR 8 WK, Promoter: NONE USED): 90%, 96%, -7%, not significant | tumour outcome (control, treated, inhibition, significance) (Carcinogen: AZOXYMETHANE, 25843-45-2, Dose [Inhibitor]: 2 G/KG DIET DAILY STARTING SIMULTANEOUSLY WITH CARCINOGEN TREATMENT AND CONTINUING THROUGH END OF STUDY (STUDY DURATION:, Route [Inhibitor]: ORAL, Species: RAT, Strain/Sex: SPRAGUE-DAWLEY/MALE, Target Tissue: Type of Lesion: LARGE INTESTINE: MALIGNANT TUMOR, Dose [Carcinogen]: 8 MG/KG BW 1/WK FOR 8 WK, Promoter: NONE USED): 90%, 93%, -3%, not significant | tumour outcome (control, treated, inhibition, significance) (Carcinogen: AZOXYMETHANE, 25843-45-2, Dose [Inhibitor]: 2 G/KG DIET DAILY STARTING SIMULTANEOUSLY WITH CARCINOGEN TREATMENT AND CONTINUING THROUGH END OF STUDY (STUDY DURATION:, Route [Inhibitor]: ORAL, Species: RAT, Strain/Sex: SPRAGUE-DAWLEY/MALE, Target Tissue: Type of Lesion: SMALL INTESTINE: MALIGNANT TUMOR, Dose [Carcinogen]: 8 MG/KG BW 1/WK FOR 8 WK, Promoter: NONE USED): 90%, 96%, -7%, not significant | tumour outcome (control, treated, inhibition, significance) (Carcinogen: N-METHYL-N-NITROSOUREA, 684-93-5, Dose [Inhibitor]: 0.2% IN DIET DAILY FOR 28 WK STARTING SIMULTANEOUSLY WITH CARCINOGEN TREATMENT AND CONTINUING FOR DURATION OF STUDY (STU, Route [Inhibitor]: ORAL, Species: RAT, Strain/Sex: FISCHER CD/MALE, Target Tissue: Type of Lesion: COLON: ADENOMA, Dose [Carcinogen]: 2 MG IN 0.5 ML OF 0.9% NACL SOLUTION 1/3 D FOR 10 D, Promoter: NONE USED): 38/71 (54%), 16/48 (33%), 39%, p<0.05
